The text below walks through data of patent US12708106B2 (priority 2019, dated 2026).

For this test, the system named is Eimeria and Clostridium perfringens. In kind it is in vivo, male broilers.
Setting [1] is: T4: 10 ppm (Enradin 8%), Eimeria + Clostridium challenge, mean ± SD.

Consider Enramycin, for which, under setting [1], the “BWG—Body Weight Gain 1-7 D” value was 90.95 ± 5.11 b g and the “FCR (Feed Conversion Ratio) 1-7 D” value was found to be 1.568 ± 0.123. For the same substance, for the setting “T4: 10 ppm, challenged”, the “BWG—Body Weight Gain 1-14 D” value is given as 413.37 ± 12.89 b g, the “BWG—Body Weight Gain 1-21 D” value worked out at 926.22 ± 23.58 b g, the “BWG—Body Weight Gain 1-28 D” value is reported as 1595.5 ± 42.62 b g and the “FCR (Feed Conversion Ratio) 1-14 D” value came out at 1.070 ± 0.049. Besides, for the setting “T4: 10 ppm, challenged”, the “FCR (Feed Conversion Ratio) 1-21 D” value was 1.255 ± 0.036 ab and the “FCR (Feed Conversion Ratio) 1-28 D” value is 1.228 ± 0.024 ab.
